{"source": "ChEMBL document CHEMBL5257056", "about": "“Accelerated Discovery of Macrocyclic CDK2 Inhibitor QR-6401 by Generative Models and Structure-Based Drug Design” (ACS Med Chem Lett, 2023)", "key": {"[1]": {"assay": "in vitro", "conditions": "human, microsomes"}, "[2]": {"assay": "in vitro", "conditions": "dog, MDCK-MDR1"}}}
{"smiles": "O=C1NCCCNC(=O)c2cccc(n2)Nc2cc([nH]n2)[C@H]2CC[C@H](C2)O1", "values": [{"measurement": "half-life at 0.75 h, 1 µM", "setting": "[1]", "value": 1.07, "unit": "h"}, {"measurement": "Papp A→B at […], 5 µM", "setting": "[2]", "value": 0.9, "unit": "×10⁻⁶ cm/s"}]}
